The compounds below were run against human CRTH2 (Homo sapiens (Human), UniProt Q9Y5Y4) (assay: Calcium Flux Assay Using Fluorometric Imaging Plate Reader (FLIPR)). Conditions: CHO-K1 cells with G-alpha 16 and human CRTH2; inhibition of DK-PGD2 ligand-induced Ca2+ flux.
Sequence of human CRTH2 (Q9Y5Y4 whole entry): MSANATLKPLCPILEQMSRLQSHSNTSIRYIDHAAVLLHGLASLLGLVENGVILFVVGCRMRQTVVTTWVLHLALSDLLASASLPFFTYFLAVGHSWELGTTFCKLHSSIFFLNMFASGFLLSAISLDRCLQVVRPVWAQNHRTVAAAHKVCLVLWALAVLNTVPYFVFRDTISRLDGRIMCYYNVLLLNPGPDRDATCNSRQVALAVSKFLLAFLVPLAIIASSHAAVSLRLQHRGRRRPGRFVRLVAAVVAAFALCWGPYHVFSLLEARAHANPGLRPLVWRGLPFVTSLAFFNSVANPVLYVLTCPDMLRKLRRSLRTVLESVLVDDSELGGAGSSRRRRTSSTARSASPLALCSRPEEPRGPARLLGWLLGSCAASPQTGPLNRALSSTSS
Type: cell-based
Experimental: Calcium Flux Assay Using Fluorometric Imaging Plate Reader (FLIPR)
Cell Culture Conditions: CHO-K1 cells previously transfected with G-alpha 16 were subsequently transfected with the human CRTH2 receptor and the neomycin resistance gene. Following selection in 800 μg/mL G418 (geneticin), individual clones were assayed for their receptor expression based on staining with an anti human CRTH2 IgG, followed by assaying for their response to 13,14-dihydro-15-keto Prostaglandin D2 (DK-PDG2) (ligand) in the Ca^2+ Flux assay. Positive clones were then cloned by limiting dilution cloning. The transfected cells were cultured in Ham's F-12 medium supplemented with 10% fetal bovine serum, 2 mM glutamine, 100 U/mL penicillin/100 μg/mL streptomycin, 200 μg/mL hygromycin B, and 800 μg/mL G418 (geneticin). Cells were harvested with trypsin-EDTA (trypsin-ethylenediaminetetraacetic acid) and counted using ViaCount® reagent (from Guava Technologies, Inc. which contains two DNA-binding dyes that enable the reagent user to distinguish between viable and non-viable cells). The cell suspension volume was adjusted to 2.5×10^5 cells/mL with complete growth media. Aliquots of 50 μL were dispensed into BD Falcon™ 384 well black/clear microplates (from BD Biosciences, a division of Becton, Dickinson and Company) and the microplates were placed in a 37° C. CO2 incubator overnight. The following day, the microplates were used in the assay.
Loading Buffer containing dye (from the FLIPR® Calcium 3 Assay Kit from Molecular Devices, a division of MDS Analytical Technologies and MDS Inc.) was prepared by dissolving the contents of one bottle into 200 mL Hank's Balanced Salt Solution containing 20 mM HEPES (4-(2-hydroxyethyl)-1-piperazineethanesulfonic acid) and 2.5 mM probenecid. Growth media was removed from the cell plates and 25 μL of Hank's Balanced Salt Solution (HBSS) containing 20 mM HEPES, 0.05% BSA and 2.5 mM probenecid was added to each well followed by 25 μL of diluted dye using a Multidrop dispenser. The plates were then incubated for 1 hour at 37° C.
During the incubation, test compound plates were prepared by adding 90 μL of HBSS/20 mM HEPES/0.005% BSA buffer to the 2 μL of serial diluted compounds. To prepare serial diluted compounds, 20 mM stocks of compounds were dissolved in 100% DMSO. The compound dilution plate was set up as follows: well #1 received 5 μL of compound plus 10 μL of DMSO. Wells 2-10 received 10 μL of DMSO. 5 μL was mixed and transferred from well #1 into well #2. 1:3 serial dilutions were continued out 10 steps. 2 μL of diluted compound was transferred into duplicate wells of a 384 well “assay plate” and then 90 μL of buffer was added.
After incubation, both the cell and “assay plate” plates were brought to the fluorometric imaging plate reader (FLIPR®) and 20 μL of the diluted compounds were transferred to the cell plates by the FLIPR®. Plates were then incubated for 1 hour at room temperature. […] During the assay, fluorescence readings were taken simultaneously from all 384 wells of the cell plate every 1.5 seconds. Five readings were taken to establish a stable baseline, then 20 μL of sample was rapidly (30 μL/sec) and simultaneously added to each well of the cell plate. The fluorescence was continuously monitored before, during and after sample addition for a total elapsed time of 100 seconds. Responses (increase in peak fluorescence) in each well following agonist addition were determined. The initial fluorescence reading from each well, prior to ligand stimulation, was used as a zero baseline value for the data from that well. The responses were expressed as % inhibition of the buffer control.
`Cc1c(CC(=O)O)cc2ccc(F)cc2c1-c1ccc(S(=O)(=O)c2c(F)cccc2F)cc1` [Example 11, {4-[4-(2,6-Difluoro-benzenesulfonyl)-phenyl]-6-fluoro-3-methyl-naphthalen-2-yl}-acetic acid] showed an IC50 of 1.2 nM. For `Cc1c(CC(=O)O)cc2ccc(Cl)cc2c1-c1ccc(S(=O)(=O)c2ccc(OC(F)(F)F)cc2)cc1` [Example 20, {6-Chloro-3-methyl-4-[4-(4-trifluoromethoxy-benzenesulfonyl)-phenyl]-naphthalen-2-yl}-acetic acid], the IC50 was 12.9 nM. Work on `Cc1c(CC(=O)O)cc2ccc(Cl)cc2c1-c1ccc(S(=O)(=O)c2c(F)cccc2F)cc1` [Example 24, {6-Chloro-4-[4-(2,6-difluoro-benzenesulfonyl)-phenyl]-3-methyl-naphthalen-2-yl}-acetic acid] yielded an IC50 of 312 nM. Compound `Cc1c(CC(=O)O)cc2ccc(Cl)cc2c1-c1ccc(S(=O)(=O)c2ccccc2Cl)cc1` [Example 15, {6-Chloro-4-[4-(2-chloro-benzenesulfonyl)-phenyl]-3-methyl-naphthalen-2-yl}-acetic acid] has an IC50 of 9.2 nM. For `Cc1c(CC(=O)O)cc2ccc(F)cc2c1-c1ccc(S(=O)(=O)N2CCCC2)cc1` [Example 46, {6-Fluoro-3-methyl-4-[4-(pyrrolidine-1-sulfonyl)-phenyl]-naphthalen-2-yl}-acetic acid], the IC50 was 0.7 nM. Work on `COc1ccc(CN(C(C)C)S(=O)(=O)c2ccc(-c3c(C)c(CC(=O)O)cc4ccc(F)cc34)cc2)cc1` [Example 53, (6-Fluoro-4-{4-[isopropyl-(4-methoxy-benzyl)-sulfamoyl]-phenyl}-3-methyl-naphthalen-2-yl)-acetic acid] yielded an IC50 of 1.3 nM. `Cc1ccc(NS(=O)(=O)c2ccc(-c3c(C)c(CC(=O)O)cc4ccc(F)cc34)cc2)cc1` [Example 42, [6-Fluoro-3-methyl-4-(4-p-tolylsulfamoyl-phenyl)-naphthalen-2-yl]-acetic acid] showed an IC50 of 0.9 nM. With `Cc1c(CC(=O)O)cc2ccc(Cl)cc2c1-c1ccc(S(=O)(=O)c2cc(F)cc(F)c2)cc1` [Example 27, {6-Chloro-4-[4-(3,5-difluoro-benzenesulfonyl)-phenyl]-3-methyl-naphthalen-2-yl}-acetic acid] the IC50 was 0.7 nM. In the case of `Cc1c(CC(=O)O)cc2ccc(Cl)cc2c1-c1ccc(S(=O)(=O)c2cc(Cl)ccc2Cl)cc1` [Example 22, {6-Chloro-4-[4-(2,5-dichloro-benzenesulfonyl)-phenyl]-3-methyl-naphthalen-2-yl}-acetic acid], the IC50 is reported as 4.4 nM. For `COc1ccc(CNS(=O)(=O)c2ccc(-c3c(C)c(CC(=O)O)cc4ccc(F)cc34)cc2)cc1` [Example 52, {6-Fluoro-4-[4-(4-methoxy-benzylsulfamoyl)-phenyl]-3-methyl-naphthalen-2-yl}-acetic acid], the IC50 was 3.2 nM. `Cc1c(Cl)cccc1NS(=O)(=O)c1ccc(-c2c(C)c(CC(=O)O)cc3ccc(F)cc23)cc1` [Example 44, {4-[4-(3-Chloro-2-methyl-phenylsulfamoyl)-phenyl]-6-fluoro-3-methyl-naphthalen-2-yl}-acetic acid] gave an IC50 of 0.9 nM. For `Cc1c(CC(=O)O)cc2ccc(Cl)cc2c1-c1ccc(S(=O)(=O)c2cc(Cl)cc(Cl)c2)cc1` [Example 26, {6-Chloro-4-[4-(3,5-dichloro-benzenesulfonyl)-phenyl]-3-methyl-naphthalen-2-yl}-acetic acid], the IC50 was 22.1 nM. `COc1ccc(CNS(=O)(=O)c2ccc(-c3c(C)c(CC(=O)O)cc4ccc(Cl)cc34)cc2)cc1` [Example 39, {6-Chloro-4-[4-(4-methoxy-benzylsulfamoyl)-phenyl]-3-methyl-naphthalen-2-yl}-acetic acid] was tested, and the IC50 was 13.2 nM. With `Cc1c(CC(=O)O)cc2ccc(Cl)cc2c1-c1ccc(S(=O)(=O)c2ccc(F)cc2F)cc1` [Example 23, {6-Chloro-4-[4-(2,4-difluoro-benzenesulfonyl)-phenyl]-3-methyl-naphthalen-2-yl}-acetic acid] the IC50 was 2.3 nM.
